Data on 2 compounds can be found in article PMC11613437, “Prioritization of Eleven-Nineteen-Leukemia Inhibitors as Orally Available Drug Candidates for Acute Myeloid Leukemia” (Journal of Medicinal Chemistry, 2024).

The subject of one series is MOLM-13-Luc cells. As to the kind of experiment: Antitumor analysis in MOLM-13-Luc xenografted NSG mice. The class given is in vivo. From the text: Animal studies were approved by the Texas A&M’s Institutional Animal Care and Use Committees. The 5 week-old female NSG mice (NOD.Cg-PrkdcscidIl2rgtm1Wjl/SzJ, Jackson Laboratory #005557) were ordered and kept under pathogen-free conditions for 1 week with free access to food and water after arrival for acclimation. Tumor models in these mice were then built by engrafting 1 × 10^6 MOLM-13-Luc cells (BPS Bioscience, 78372) through tail vein injection. Tumors were allowed to grow for 6 days, and then applied for treatment by oral gavage daily (day 0 was the beginning of treatment). Dosage of 200 or 400 mg/kg (vehicle of 5% DMSO, 45% PEG400, 2.5% Tween 80, and 47.5% water) was applied. Tumor growth was evaluated by bioluminescent imaging (BLI) using an IVIS In Vivo Imaging System by intraperitoneal injection of 150 mg/kg D-Luciferin potassium salt (MedChemExpress, HY-12591B). Their body weights were recorded every 2–3 days. Surviving mice were counted every day and the mortality was calculated. No animal was excluded from any of the analyses. The investigators were not blinded to allocation during experiments and outcome assessment.

The next series has as its target T1, ENL YEATS domain (Homo sapiens, UniProt Q03111).
T1 construct: Biotinylated-ENL YEATS was immobilized onto SSA biosensors; biotin (biotinylated)
T1 sequence (Q03111 1-138 limits assumed): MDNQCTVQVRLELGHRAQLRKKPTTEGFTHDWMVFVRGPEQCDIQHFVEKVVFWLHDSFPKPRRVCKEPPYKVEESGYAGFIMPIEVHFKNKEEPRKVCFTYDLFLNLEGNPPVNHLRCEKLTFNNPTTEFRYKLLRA
Nature of the series: Biolayer interferometry (BLI). Conditions: biotinylated ENL YEATS on SSA biosensors, 1:1 model. The class given is binding. The method, then:
Superstreptavidin biosensors were first incubated in an assay buffer (20 mM Tris, pH 7.8, 300 mM NaCl, 0.05% Tween 20, 0.1% DMSO) for 15 min. Sensors were coated with 40–60 μg/mL of biotinylated ENL for 15 min at room temperature. Inhibitors were serially diluted across a 96-well plate in a volume of 200 μL. Association of samples to either ENL- or uncoated reference sensors was measured over 300 s and dissociation over 300 s with baseline measurements (buffer only) for 300 s. All assays were run with continuous 1000 rpm shaking. Data were analyzed using the OctetRED data analysis software with reference subtraction in which reference uncoated sensors and reference samples were subtracted. Then, global kinetic fit was performed for all sonogram curves with a 1:1 model to get KD values.

The test system of another series is MV4-11 cells. As to the kind of experiment: Cell toxicity assay (CCK-8), MV4-11. The series is classed as cell-based. Conditions: Homo sapiens, MV4-11; 72 h treatment (superscript a). The method, then: (§1) Approximately 1 × 10^4 JURKAT, MOLM-13, MV4-11 and HEK293T cells in RPMI 1640 (no phenol red) (100 μL) were added to a 96-well plate and treated with DMSO or a compound at indicated concentrations for 72 h or 8 days. Cell viability was measured using the CCK-8 kit (Abcam, ab228554) according to the manufacturer’s instructions.

In the next series the test system is MOLM-13 cells. As to the kind of experiment: Cell toxicity assay (CCK-8), MOLM-13. The class given is cell-based. The method, then:
as §1

Each structure is given as a SMILES string.

Consider `CC(C)[C@H]1CCN1Cc1cc2cnc(NC(=O)c3ccc4nncn4c3)cc2[nH]1` [SR-C-107 (R), (R)-N-(2-((2-Isopropylazetidin-1-yl)methyl)-1H-pyrrolo[3,2-c]pyridin-6-yl)-[1,2,4]triazolo[4,3-a]pyridine-6-carboxamide], for which the “tumor growth inhibition (TGI)” value in the series with MOLM-13-Luc cells (200 mg/kg PO QD, after 8 days of treatment) worked out at 49.5%; in the series with MOLM-13-Luc cells (200 mg/kg PO QD, day 12), 45%. Further, in the series on MOLM-13-Luc cells (200 mg/kg PO QD, vehicle 10), the median survival time stood at 15 days post-treatment. The same compound returned a Kd on ENL YEATS domain of 144 nM.
In the case of `CC(C)C1CCN1Cc1ccc(CNC(=O)c2ccc3nncn3c2)cc1` (centres unmarked) [inhibitor 13], the tumor reduction result in the series on MOLM-13-Luc cells (200 mg/kg PO QD) was “no noticeable tumor reduction”. Further, the “increase in median survival” value with MOLM-13-Luc cells (400 mg/kg PO QD vs control) came to 33.3%. For the same compound, the “tumor growth inhibition (TGI)” value with MOLM-13-Luc cells (400 mg/kg PO QD, after 13 days of treatment, vs control) was roughly 45%. Besides, in the series on MOLM-13-Luc cells (400 mg/kg PO QD, control 15), the median survival is 20 post-treatment days. For the same compound, the cytotoxic concentration (CC50) in the series with MV4-11 cells came out at 9.15 µM; in the series on MOLM-13 cells (Homo sapiens, MOLM-13, 72 h treatment (superscript a)), 8.2 µM. Also, in the series on MOLM-13 cells (8 day treatment, n = 3, read-out: CC50 MOLM-13 (Cellular IC50, 8-days incubation)), the IC50 worked out at 6.01 ± 0.83 µM.
